From article PMC12089509, “NorA Efflux Pump Inhibitors: Expanding SAR Knowledge of Pyrazolo[4,3‐c][1,2]benzothiazine 5,5‐Dioxide Derivatives” (Archiv Der Pharmazie, 2025)
≈ marks a conversion by molar mass, not a printed value. Like-named read-outs stand apart in the source and are kept apart here.

How the values were obtained:
[1] = test system: Staphylococcus aureus SA-1199B; format: cell-based
Description: For purposes of comparison, compound 1 was included as a reference.

[2] = test system: S. aureus SA-K1902 (norA-); assay: MIC evaluation against SA-K1902; format: cell-based, Staphylococcus aureus; settings: Staphylococcus aureus
Description: (§1) Conversely, interesting results were obtained against SA‐K2378, which overexpresses the norA gene (Table 2). […] This corroborates the hypothesis that their activity is strictly related to NorA EP inhibition.
In this study, the S. aureus strains SA‐1199B (overexpressing norA) and its isogenic parent SA‐1199 (wild type), the pair SA‐K1902 (norA‐depleted) and SA‐K2378 (complemented with a pCU1 plasmid harboring the norA promoting and coding region from SA‐1199B), were used to test EPI activity as described in a previous study. Furthermore, the S. aureus ATCC 29213 was used as the reference strain in MIC determination experiments.

[3] = test system: S. aureus SA-K2378 (norA ++); assay: Checkerboard assay EPI/CPX against SA-K2378; format: cell-based, Staphylococcus aureus
Method: as §1
Checkerboard assays were carried out using SA‐K1902 and SA‐K2378 strains according to standard procedures.

[4] = MTT cytotoxicity assay on MCF7; format: cell-based; settings: human, MCF7 cells; for viability at 72 h, 12.5 µg/mL: MCF7, 12.5 μg/mL; for viability at 72 h, 12.5 µg/mL / viability at 72 h, 25 µg/mL / viability at 72 h, 50 µg/mL / viability at 72 h, 100 µg/mL: read-out: Cytotoxicity (% cell viability); for viability at 72 h, 25 µg/mL: MCF7, 25 μg/mL; for viability at 72 h, 50 µg/mL: MCF7, 50 μg/mL; for viability at 72 h, 100 µg/mL: MCF7, 100 μg/mL; for CC50 at 72 h: MCF7, MTT
Method: The MTT assay was performed on two human ATCC cell lines, that is, […] (CCL‐185) and MCF7 (HTB‐22), to test the potential cytotoxic effect of the compounds, after 72 h exposure, as previously described. Each compound was tested at concentrations ranging from 12.5 to 100 μg/mL. Untreated cells were considered as controls. The percentage of viable cells was calculated as follows: % Cell viability = 100 × treated well absorbance/untreated control well absorbance. All assays were performed once in technical quadruplicate.

Compound | N° fold CPX MIC reduction ([1]; EPI at 3.12 µg/mL) [fold] | MIC [2] [µg/mL] | CPX MIC ([3]; EPI at 0.2 µg/mL) [µg/mL] | N° CPX MIC reduction ([3]; EPI at 0.2 µg/mL) | CPX MIC ([3]; EPI at 0.4 µg/mL) [µg/mL] | N° CPX MIC reduction ([3]; EPI at 0.4 µg/mL) | CPX MIC ([3]; EPI at 0.8 µg/mL) [µg/mL] | N° CPX MIC reduction ([3]; EPI at 0.8 µg/mL) | CPX MIC ([3]; EPI at 1.6 µg/mL) [µg/mL] | N° CPX MIC reduction ([3]; EPI at 1.6 µg/mL) | CPX MIC ([3]; EPI at 3.13 µg/mL) [µg/mL] | N° CPX MIC reduction ([3]; EPI at 3.13 µg/mL) | CPX MIC ([3]; EPI at 6.25 µg/mL) [µg/mL] | N° CPX MIC reduction ([3]; EPI at 6.25 µg/mL) | viability at 72 h, 12.5 µg/mL [4] [%] | viability at 72 h, 25 µg/mL [4] [%] | viability at 72 h, 50 µg/mL [4] [%] | viability at 72 h, 100 µg/mL [4] [%] | CC50 at 72 h [4] [µg/mL] | N° fold CPX MIC reduction ([1]; EPI at 12.5 µg/mL) [fold]
O=S1(=O)Nc2c(-c3ccc(Cl)cc3)nn(-c3ccccc3)c2-c2ccccc21 [Compound 3] | 2 | > 50 | 0.6 | 2 | 0.6 | 2 | 0.3 | 4 | 0.16 | 8 | 0.16 | 8 | 0.08 | 16 | 97 ± 10 | 84 ± 4 | 88 ± 4 | 66 ± 7 | > 100 | 
CN1c2c(-c3ccc(Cl)cc3)n[nH]c2-c2ccccc2S1(=O)=O [Compound 10, 3‐(4‐Chlorophenyl)‐4‐methyl‐1,4‐dihydropyrazolo[4,3‐c][1,2]benzothiazine 5,5‐dioxide] |  | 12.5 (≈ 36.1 µM) | 0.6 | 2 | 0.6 | 2 | 0.3 | 4 | 0.16 | 8 | 0.08 | 16 |  |  | 66 ± 5 | 26 ± 2 | 7 ± 1 | 6 | ~25 (≈ 72.3 µM) | 4
